Reference: patent US12472231B2 (priority 2020, dated 2025)
Where a SMILES comes first, the peptide text is derived from it.

System: A(H1N1)pdm09 virus
Assay: microbe, parasite or virus in culture
Type: cell-based

Row | SMILES | emergence of drug-resistant virus after serial passages in presence of the agent | inhibition of P30 virus replication | inhibition of P40 virus replication | inhibition of P10 virus replication (2000 nM) | inhibition of P15 virus replication (8000 nM) | IC50 (Influenza A virus, H1N1, MDCK, 24 h, read-out: IC50 against parent A(H1N1)pdm09 virus (P0))
1 | CC[C@H](C)[C@H](NC(=O)[C@H](C)NC(=O)CNC(=O)[C@@H](N)CC(N)=O)C(=O)N[C@@H](CS)C(=O)N[C@@H](Cc1c[nH]c2ccccc12)C(=O)NCC(=O)N1CCC[C@H]1C(=O)N[C@@H](CS)C(=O)N1CCC[C@H]1C(=O)N[C@H](C(=O)N[C@@H](C)C(=O)N[C@@H](Cc1ccccc1)C(=O)N[C@@H](CCCNC(=N)N)C(=O)N[C@@H](CCC(N)=O)C(=O)N[C@H](C(=O)NCC(=O)N[C@@H](CC(N)=O)C(=O)N[C@@H](CS)C(=O)NCC(=O)N[C@@H](CCCNC(=N)N)C(=O)N[C@@H](Cc1ccccc1)C(=O)N[C@@H](CCCNC(=N)N)C(=O)N[C@H](C(=O)N[C@@H](CCCNC(=N)N)C(=O)N[C@@H](CS)C(=O)N[C@@H](CS)C(=O)N[C@@H](CCCNC(=N)N)C(=O)N[C@H](C(=O)N[C@@H](CCCNC(=N)N)C(=O)O)[C@@H](C)CC)C(C)C)[C@@H](C)CC)[C@@H](C)O [P9R] (H-NGAICWGPCPTAFRQIGNCGRFRVRCCRIR-OH) | No obvious drug-resistant virus | could efficiently inhibit | could efficiently inhibit |  |  | 
